The source of these data is US8206593B2, “Microfluidic chemical reaction circuits” (Fluidigm Corporation, priority 2004, dated 2012).

The subject of the data set is tumor-bearing mouse (M-MSV/M-MuLV rhabdomyosarcoma). As to the kind of experiment: microPET/microCT imaging of a tumor-bearing mouse injected with [18F]FDG. Format: in vivo. The settings on record: 272 microCi via tail vein; 1-h uptake and non-specific clearance; imaged 15 minutes; FDG produced in a microfluidic chip. An excerpt: Mouse Model. The tumor model used was a strongly immunogenic, non-metastasizing retrovirally-induced rhabdomyosarcoma (M-MSV/M-MuLV) (Fletcher et al., 2002, Tetrahedron 58:4735). MSV is a replication-defective, acutely transforming retrovirus carried with helper activity provided by M-MuLV, which encodes the gag, pol, and env components that are necessary for cell infection and replication (Worz et al., 2001, Chemical Engineering Science 56:1029). Rhabdomyosarcomas develop at the intramuscular inoculation site after a short latency period (7-10 days) and regress over a period of 4-5 wk following the induction of a strong immune reaction in immunocompetent adult mice. These lesions were characterized by a mixture of virus-infected myocytes and a large infiltrate of lymphocytes, granulocytes, and macrophages. Both cellular and humoral immune responses induced are dependent on presentation by H-2 D^b alleles (Watts et al., 2003, Current Opinion in Chemical Biology 7:380). Rejection was mediated by CD8+ cytolytic T cells, which recognize peptides from the gag and env proteins of M-MuLV, and requires help from CD4+ T cells (Kobayashi et al., 2004, Science 304:1305; Chan et al., 2003, Nano Letters 3:199; Kawaguchi et al., 2005, Angewandte Chemie-International Edition 44:2413)
Mouse imaging. The tumor bearing mouse was injected with 272 microCi of FDG via tail vein. […]

As for “2-deoxy-2-[^18F]fluoro-D-glucose [[^18F]FDG]”, the “Organs visible in microPET/microCT image” value was “bladder, kidneys, heart, tumor and two lymph nodes”.
